# Measured values from patent US7589170B1, “Synthesis of cyclic peptides” (priority 1998, dated 2009).
# “Also recorded” adds a separate entry of the source. Like-named read-outs stand apart in the source and are kept apart here.
# How the values were obtained:
# [1] = stability to hydrolysis in aqueous buffer at pH 9; assay type: physicochemical
# [2] = stability to heating in DMSO; assay type: physicochemical; conditions: 20 h at 70° C. in DMSO
# [3] = the molecule shown is the open-chain precursor, amide bond, 15-membered ring
# [4] = tested on: sympathetic varicosities of the mouse vas deferens; test: focal extracellular recording of evoked excitatory junction currents (EJC, measure of transmitter release); assay type: cell-based
# Protocol: Each filled circle represents an EJC recorded during 100 minutes. Failure to record an EJC is indicated by filled circles on zero of the y-axis. The lower horizontal line indicates when the mixture of cyclic tetrapeptides (1 μM) was applied to the tissue bathing solution and the upper horizontal line when naloxone (1 μM) was added to the tissue bathing solution. […] Cyclo [Tyr-Arg-Phe-Gly] is SEQ ID NO:42.
# Each bar is the average of at least 60 recordings, and the vertical lines show the standard deviation of the mean. […] Cyclo [Tyr-Arg-Phe-Gly] is SEQ ID NO:42.
# Demorphin is a opioid heptapeptide isolated from the skin of South American frogs, and has the following sequence; {H-Tyr-D-Ala-Phe-Gly-Tyr-Pro-Ser-NH2; SEQ ID NO:71). The tetrapeptide analogues (H-Tyr-D-Ala-Phe-Gly-NH-Y; SEQ ID NO:29) are potent analgesics when administered by intracerebroventricular injection. In Example 3 we synthesised the cyclic tetrapeptides cyclo[Tyr-Arg-Phe-Gly] (SEQ ID NO:42) and cyclo[Tyr-Arg-D-Phe-Gly] (SEQ ID NO:42) designated WP 152 using our combination strategies.
# [5] = as originally found for the isolate from Stylotella aurantium; cited from earlier work
# [6] = from H-(Hnb)Tyr-Arg-(Hnb)Phe-Ala-OH, amide bond, 12-membered ring
# [7] = amide bond, 21-membered ring, BOP/2,6-lutidine, resin, -10.0 °C, with chain assembly
# [8] = amide bond, DIEA, DMF, resin, with chain assembly
# [9] = amide bond, 16-membered ring, HATU/DIEA, DMF, resin, with chain assembly
compound,measurement,setting,value
O=C1CNC(=O)CNC(=O)CNC(=O)CN1 [H-Gly-Gly-Gly-Gly-OH],"ring closure, yield after HPLC","from H-Gly-Gly-Gly-Gly-OH, amide bond, 12-membered ring, BOP/DIEA, DMF, 1.0 mM",1%
CN1CC(=O)NCC(=O)N(C)CC(=O)NCC1=O [H-Gly-MeGly-Gly-MeGly-OH],"ring closure, yield after HPLC","from H-Gly-MeGly-Gly-MeGly-OH, amide bond, 12-membered ring, BOP/DIEA, DMF, 1.0 mM",2%
cyclo-[(Hnb)Tyr-Arg-(Hnb)Phe-(D)Ala] [Product A],stability to hydrolysis,[1],Stable to hydrolysis
same,stability to heat,[2],Unstable to heat
CN1CC(=O)NCC(=O)NCC(=O)NCC1=O [H-Gly-MeGly-Gly-Gly-OH],"ring closure, yield after HPLC","from H-Gly-MeGly-Gly-Gly-OH, amide bond, 12-membered ring, BOP/DIEA, DMF, 1.0 mM",1%
C[C@@H]1NC(=O)[C@H](Cc2ccccc2)N(Cc2c(O)cccc2[N+](=O)[O-])C(=O)[C@H](CCCNC(=N)N)NC(=O)[C@H](Cc2ccc(O)cc2)N(Cc2c(O)cccc2[N+](=O)[O-])C1=O [cyclo-[(Hnb)Tyr-Arg-(Hnb)Phe-Ala]],"ring closure, yield after HPLC",[6],13%
CC(C)C[C@@H]1NC(=O)[C@H](Cc2ccccc2)NC(=O)[C@H](C)N(Cc2cc([N+](=O)[O-])ccc2O)C(=O)[C@H](C)NC(=O)[C@@H]2CCCN2C1=O [Cyclo-[N-(5-nitro-2-hydroxybenzyl)-Ala-Phe-Leu-Pro-Ala]],"ring closure, yield after HPLC","from H-(5-nitro-2-hydroxybenzyl)Ala-Phe-Leu-Pro-Ala-OH, amide bond, 15-membered ring, BOP/DIEA, DMF, 1.0 mM, 25.0 °C",51%
CC[C@H](C)[C@@H]1NC(=O)[C@H](C)NC(=O)[C@H](CC(C)C)NC(=O)[C@H](CO)NC(=O)[C@H](CC(N)=O)NC(=O)[C@H](Cc2ccccc2)NC(=O)[C@@H]2CCCN2C1=O [Cyclo-(Pro-Phe-Asn-Ser-Leu-Ala-Ile)],"ring closure, yield after HPLC","from H-Asn-Ser-Leu-Ala-Ile-Pro-Phe-OH, amide bond, 21-membered ring, BOP/DIPEA, DMF, 1.0 mM, -10.0 °C",48%
CN1CC(=O)NCC(=O)N(C)CC(=O)N(C)CC1=O [H-Gly-MeGly-MeGly-MeGly-OH],"ring closure, yield after HPLC","from H-Gly-MeGly-MeGly-MeGly-OH, amide bond, 12-membered ring, BOP/DIEA, DMF, 1.0 mM",5%
CN1CC(=O)NCC(=O)NCC(=O)N(C)CC1=O [H-Gly-Gly-MeGly-MeGly-OH],"ring closure, yield after HPLC","from H-Gly-Gly-MeGly-MeGly-OH, amide bond, 12-membered ring",18%
Cyclo-(Pro-Phe-Asn-Ser-Leu-Ala-Ile),"ring closure, yield after HPLC",[7],10%
CN1CC(=O)NCC(=O)NCC(=O)NCC1=O [H-Gly-Gly-MeGly-Gly-OH],"ring closure, yield after HPLC","from H-Gly-Gly-MeGly-Gly-OH, amide bond, 12-membered ring, BOP/DIEA, DMF, 1.0 mM",11%
CC[C@H](C)[C@@H]1NC(=O)[C@H](C)NC(=O)[C@H](CC(C)C)NC(=O)[C@H](CO)NC(=O)[C@H](CC(N)=O)NC(=O)[C@H](Cc2ccccc2)NC(=O)[C@@H]2CCCN2C1=O [cyclo-(Pro-Phe-Asn-Ser-Leu-Ala-Ile)],"ring closure, yield after HPLC","from H-Pro-Phe-Asn-Ser-Leu-Ala-Ile-OH, amide bond, 21-membered ring, BOP/DIPEA, DMF, -10.0 °C",67%
Cyclo-[DGCatRG],"ring closure, yield after HPLC","amide bond, 16-membered ring, DIEA, DMF, resin, with chain assembly",11%
H-Ala-Phe-Leu-Pro-Ala-O-linker-resin?,"ring closure, conversion",[3]; resin,0%
cyclo-[(Hnb)Tyr-Arg-(Hnb)Phe-Ala] [Product B],stability to hydrolysis,[1],Stable
same,stability to heat,[2],Stable to heat
cyclo-[DAmbGRG],"ring closure, yield after HPLC",[8],5%
cyclo-[DGAmbRG],"ring closure, yield after HPLC",[8],7.6%
CC(C)C[C@@H]1NC(=O)[C@H](Cc2ccccc2)N(Cc2c(O)cccc2[N+](=O)[O-])C(=O)[C@H](C)NC(=O)[C@H](C)NC(=O)[C@@H]2CCCN2C1=O [Cyclo-[N-(6-nitro-2-hydroxybenzyl)-Phe-Leu-Pro-Ala-Ala]],"ring closure, yield after HPLC","from H-(6-nitro-2-hydroxybenzyl)Phe-Leu-Pro-Ala-Ala-OH, amide bond, 15-membered ring, BOP/DIEA, DMF, 1.0 mM, 25.0 °C",44%
N=C(N)NCCC[C@H]1C(=O)N[C@@H](Cc2ccccc2)C(=O)NCC(=O)N(Cc2c(O)cccc2[N+](=O)[O-])[C@@H](Cc2ccc(O)cc2)C(=O)N1Cc1c(O)cccc1[N+](=O)[O-] [Cyclo-[(Hnb)Tyr-(Hnb)Arg-Phe-Gly]],"ring closure, yield after HPLC","from H-(Hnb)Tyr-(Hnb)Arg-Phe-Gly-OH?, amide bond, 12-membered ring, BOP/DIEA, DMF, 1.1 mM, 25.0 °C",61%
COc1ccc(CN2CC(=O)NCC(=O)NCC(=O)N(Cc3ccc(OC)cc3O)CC2=O)c(O)c1 [H-Gly-(HMB)Gly-(HMB)Gly-Gly-OH],"ring closure, yield after HPLC","from H-Gly-(HMB)Gly-(HMB)Gly-Gly-OH, amide bond, 12-membered ring, BOP/DIEA, DMF, 1.0 mM",16%
Cyclo-(SCH2CH2-Gly-Arg-Pro-Phe-Gly),"ring closure, yield after HPLC","other bond, 18-membered ring, BOP/DIEA, DMF, 1.0 mM, -10.0 °C",31%
H-Ala-Phe-Leu-Pro-Ala-OH?,"ring closure, conversion",[3]; BOP/DIEA,0%
"C=CCN1CC[C@]23c4c5ccc(O)c4O[C@H]2C(=O)CC[C@@]3(O)[C@H]1C5 [naloxone, reference compound]",effect of naloxone on the EJC reduction caused by the cyclic tetrapeptide mixture,[4]; naloxone 1 μM added to the tissue bathing solution with the tetrapeptide mixture (1 μM),inhibits this effect; also recorded: reversed
"CCC(C)[C@@H]1NC(=O)[C@H](C)NC(=O)C(CC(C)C)NC(=O)[C@H](CO)NC(=O)C(CC(N)=O)NC(=O)[C@H](Cc2ccccc2)NC(=O)[C@@H]2CCCN2C1=O (stereo in doubt) [stylostatin, Cyclo-(Pro-Phe-Asn-Ser-Leu-Ala-Ile)]",cytotoxicity,[5],highly cytotoxic
CN1CC(=O)NCC(=O)NCC(=O)N(C)CC1=O [H-Gly-MeGly-MeGly-Gly-OH],"ring closure, yield after HPLC","from H-Gly-MeGly-MeGly-Gly-OH, amide bond, 12-membered ring",13%
N=C(N)NCCC[C@H]1C(=O)N[C@@H](Cc2ccccc2)C(=O)N(Cc2c(O)cccc2[N+](=O)[O-])CC(=O)N[C@@H](Cc2ccc(O)cc2)C(=O)N1Cc1c(O)cccc1[N+](=O)[O-] [H-(Hnb)Gly-Tyr-(Hnb)Arg-Phe-OH?],"ring closure, yield after HPLC","from H-(Hnb)Gly-Tyr-(Hnb)Arg-Phe-OH?, amide bond, 12-membered ring, BOP/DIEA, DMF, 1.18 mM",68%
Cyclo-[Leu-Asp-Val-Gly-β-Ala],"ring closure, yield after HPLC",[9],18%
CC(C)C[C@@H]1NC(=O)[C@H](Cc2ccccc2)NC(=O)[C@H](C)N(Cc2c(O)cccc2[N+](=O)[O-])C(=O)[C@H](C)NC(=O)[C@@H]2CCCN2C1=O [Cyclo-[N-(6-nitro-2-hydroxybenzyl)-Ala-Phe-Leu-Pro-Ala]],"ring closure, yield after HPLC","from H-(6-nitro-2-hydroxybenzyl)Ala-Phe-Leu-Pro-Ala-OH, amide bond, 15-membered ring, BOP/DIEA, DMF, 1.0 mM, 25.0 °C",39%
C[C@@H]1NC(=O)[C@H](Cc2ccccc2)N(Cc2c(O)cccc2[N+](=O)[O-])C(=O)[C@H](CCCNC(=N)N)NC(=O)[C@H](Cc2ccc(O)cc2)N(Cc2c(O)cccc2[N+](=O)[O-])C1=O [Cyclo-[(Hnb)Tyr-Arg-(Hnb)Phe-Ala]],"ring closure, yield after HPLC","from H-(Hnb)Tyr-Arg-(Hnb)Phe-Ala-OH?, amide bond, 12-membered ring",60%
Cyclo-[Arg-Gly-Asp-Gly-β-Ala],"ring closure, yield after HPLC",[9],9%
cyclo[Tyr-Arg-Phe-Gly] (SEQ ID NO:42) and cyclo[Tyr-Arg-D-Phe-Gly] (SEQ ID NO:42) [WP 152],EJC amplitude and frequency,"[4]; 1 μM in tissue bathing solution, EJCs recorded during 100 minutes (FIG. 10)",greatly reduces the EJC amplitude and frequency
same,average excitatory junction current (EJC) amplitude and frequency,"[4]; 1 μM, following 20 minutes of exposure, each bar average of at least 60 recordings (FIG. 11)",highly significant decrease
same,transmitter release,"[4]; FIGS. 10 and 11, mixture of compounds",greatly reduces transmitter release
same,opiate agonism inferred from reversal by naloxone,"[4]; one or both of the compounds, strongly suggested, not measured directly",potent μ-opiate agonists
Cyclo-[Phe-Lys-Trp-Gly-β-Ala],"ring closure, yield after HPLC",[9],15%
C[C@@H]1NC(=O)[C@H](Cc2ccccc2)N(Cc2c(O)cccc2[N+](=O)[O-])C(=O)[C@H](CCCNC(=N)N)NC(=O)[C@H](Cc2ccc(O)cc2)N(Cc2c(O)cccc2[N+](=O)[O-])C1=O [cyclo-[(Hnb)Tyr-Arg-(Hnb)Phe-(D)Ala]],"ring closure, yield after HPLC",[6],18%
CN1CC(=O)NCC(=O)NCC(=O)NCC1=O [H-Gly-Gly-Gly-MeGly-OH],"ring closure, yield after HPLC","from H-Gly-Gly-Gly-MeGly-OH, amide bond, 12-membered ring, BOP/DIEA, DMF, 1.0 mM",8%
C[C@H]1C(=O)N[C@@H](Cc2ccc(O)cc2)C(=O)N(Cc2c(O)cccc2[N+](=O)[O-])[C@@H](CCCNC(=N)N)C(=O)N[C@@H](Cc2ccccc2)C(=O)N1Cc1c(O)cccc1[N+](=O)[O-] [H-(Hnb)Ala-Tyr-(Hnb)Arg-Phe-OH],"ring closure, yield after HPLC","from H-(Hnb)Ala-Tyr-(Hnb)Arg-Phe-OH, amide bond, 12-membered ring, BOP/DIEA, DMF, 1.0 mM, 25.0 °C",53%
cyclo-(Pro-Phe-Asn-Ser-Leu-Ala-Ile),"ring closure, yield after HPLC",[7],25%
cyclo-[D-G-Amb-R-G],"ring closure, yield after HPLC","amide bond, DIPEA, DMF, resin, with chain assembly",49%
